Experiment in all cases: NCI anticancer screen, dose series, 48 h
Assay [1] relates to LXFL 529 NSCLC.
Assay [2] concerns SF-295 CNS.
Assay [3] has as its system SN12C renal.
In assay [4] the test system is NCI-H460 lung.
For assay [5], the system named is DLD-1 colon.
Assay [6] relates to DMS 114 small cell lung.
Assay [7] deals with EKVX NSCLC.
Assay [8] deals with CCRF-CEM leukemia.
The test system of assay [9] is SNB-78 CNS.
Assay [10] relates to UACC-62 melanoma.

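Interpolation was linear, between the two tested concentrations surrounding the appropriate level; five concentrations were tested over 48 hours in 96-well plates. The concentration for 50% growth inhibition is given as GI50. Definition used: TGI = concentration required for complete inhibition of growth.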

As for `COc1ccc(-c2oc3cc(O)c(OC)c(O)c3c(=O)c2OC2OC(CO)C(O)C(O)C2O)cc1` (stereo not drawn), the TGI in assay [1], in assay [2], in assay [3], in [4], in assay [5] and in assay [6] was more than 100 µM each time. The TGI in assay [7], in assay [8], in assay [9] and in [10] was more than 100 µM each time.

Take `S=c1[nH]nc(COc2ccc(Cl)cc2)o1`: the TGI in assay [1], in assay [2], in assay [3], in assay [4], in assay [5] and in [6] was more than 100 µM each time. The TGI in assay [7], in assay [8], in assay [9] and in [10] was more than 100 µM each time.

In the case of `CCCCN(CCCC)C(=O)C(=O)CC(=O)c1ccc(Br)cc1`, the TGI in assay [1], in assay [2], in assay [3], in assay [4], in [5] and in [6] was more than 100 µM in each case. In addition, the TGI in assay [7], in [8], in assay [9] and in [10] was more than 100 µM each time.

On to `Cc1cc(Br)cc(C)c1NC(=O)C(=O)CC(=O)c1sc(-n2nc(-c3ccccc3)cc2-c2ccccc2)nc1C`, for which the TGI in assay [1], in assay [2], in assay [3], in assay [4], in assay [5] and in assay [6] was more than 100 µM throughout. For the same compound, the TGI in assay [7], in [8], in assay [9] and in assay [10] was more than 100 µM throughout.

Turning to `N[C@H]1C2C3CC4C5CC(C42)C1(c1ccccc1)C53` (stereo partly drawn), the TGI in assay [1], in [2], in [3], in assay [4], in [5] and in [6] was more than 100 µM each time. The TGI in assay [7], in assay [8], in assay [9] and in assay [10] was more than 100 µM in each case.

On to `COC1C=C(Nc2cccc(Cl)c2)C(=O)C1` (stereo not drawn), for which the TGI in assay [1], in assay [2], in assay [3], in assay [4], in assay [5] and in assay [6] was more than 100 µM each time. The TGI is 55.3 µM in [7], more than 100 µM in [8], more than 100 µM in [9] and more than 100 µM in assay [10].

As to `CC1=C(C(=O)Nc2ccccc2)C(c2ccc3c(c2)OCO3)C(C(=O)Nc2ccccc2)=C(C)N1`, the TGI in assay [1], in assay [2], in assay [3], in assay [4], in assay [5] and in assay [6] was more than 100 µM throughout. The TGI in assay [7] is more than 100 µM; in [8], 41 µM; in assay [10] it was more than 100 µM.

As for `C/C(=N\NC(=S)Nc1ccc(C(=O)O)cc1)c1ccccn1`, the TGI was more than 100 µM in [1]; more than 100 µM in assay [2]; 35.8 µM in assay [3]; 50.2 µM in [4]; more than 100 µM in assay [5]; more than 100 µM in assay [6]. Besides, the TGI in assay [7] was more than 100 µM; in assay [8], more than 100 µM; in [9] it was more than 100 µM; in assay [10], 21.9 µM.

Regarding `CCOP(=O)(OCC)C1C(=O)O[C@H]2CCCC[C@@H]12` (stereo partly drawn), the TGI in assay [1], in assay [2], in [3], in [4], in assay [5] and in assay [6] was more than 100 µM in each case. The TGI in [7], in [8], in assay [9] and in [10] was more than 100 µM in each case.

On to `CC1=C(C(=O)Nc2ccc([N+](=O)[O-])cc2)C(c2ccco2)C(C(=O)Nc2ccc([N+](=O)[O-])cc2)=C(C)N1`, for which the TGI was more than 100 µM in assay [1]; more than 100 µM in [2]; more than 100 µM in assay [3]; more than 100 µM in assay [4]; more than 100 µM in assay [5]; 43.2 µM in assay [6]. Moreover, the figures for the TGI in assay [7], in assay [8] and in assay [9] were 73.6 µM, 51.2 µM and 78.8 µM, respectively.

Take `CCOC(=O)c1cccc(=O)c(C(=O)OCC)c1`: the TGI in assay [1] was more than 100 µM; in assay [4], more than 100 µM; in assay [5] it was more than 100 µM; in [6] it was more than 100 µM; in [7] it was more than 100 µM; in assay [8], 65.9 µM. Besides, the TGI in assay [9] and in assay [10] was more than 100 µM in each case.

As to `CC(C)=CC(=O)CC(=O)C(=O)Nc1ccc(C)c(C)c1`, the TGI in assay [1], in [2], in [3], in assay [5], in assay [7] and in assay [8] was more than 100 µM each time. The TGI in assay [9] and in assay [10] was more than 100 µM throughout.

In the case of `CCOC(=O)Cc1c(Cc2[nH]c(C(=O)OCc3ccccc3)c(CC(=O)OCC)c2CC(=O)OCC)[nH]c(C(=O)OCc2ccccc2)c1CC(=O)OCC`, the TGI in [1], in [2], in assay [3], in assay [6], in [8] and in [9] was more than 100 µM in each case. In [10], this compound displayed a TGI of more than 100 µM.

For the compound `C=C(c1ccccc1N)[C@@]1(O)C[C@H](/C(=C\C)CO)C[C@@H]1NCc1ccccc1`, the TGI was 30.5 µM in [2]; more than 100 µM in assay [3]; 42.8 µM in [4]; 33.9 µM in assay [6]; more than 100 µM in assay [7]; 57.2 µM in [8]. The TGI is 79.7 µM in assay [9] and more than 100 µM in [10].

Regarding `N#Cc1ccccc1NC(=O)C(=O)C(C(=O)c1ccccc1-c1ccccc1)C1OC(=O)c2ccccc21` (stereo not drawn), the TGI was 58.3 µM in assay [2]; 40.4 µM in assay [4]; 32.4 µM in [5]; 41.6 µM in assay [6]; 36 µM in assay [7]; more than 100 µM in [8]. Further, the figures for the TGI in assay [9] and in assay [10] were 59.9 µM and 33.8 µM, respectively.

For the compound `O=C(O)CN(c1ccc(Cl)cc1)S(=O)(=O)c1ccccc1`, the TGI in assay [1], in assay [2], in assay [3], in assay [4], in assay [5] and in assay [7] was more than 100 µM each time. For the same compound, the TGI in assay [8] and in assay [10] was more than 100 µM throughout.

For `O=C1C2=C(c3ccccc31)C(c1ccc(Cl)cc1)N1C(=O)CCSC1=N2` (stereo not drawn), the TGI in assay [1], in assay [2], in assay [3], in [5], in [6] and in [7] was more than 100 µM each time. The TGI in assay [8] and in [10] was more than 100 µM in each case.

Turning to `CC(=O)[CH-]C(=O)c1ccccc1.CC(=O)[CH-]C(=O)c1ccccc1.CCN(CC)CC[O-].CCN(CC)CC[O-].Cl.[Ti+4]`, the GI50 was 22.2 µM in assay [1]; 37.9 µM in assay [2]; 39.5 µM in assay [3]; 29.8 µM in assay [4]; 36 µM in assay [10]. The TGI in assay [1] is 68.3 µM; in [2], 86.7 µM; in assay [3] it was more than 100 µM; in assay [4], more than 100 µM; in assay [10] it was 91.6 µM.

In the case of `COc1c(OC(C)=O)ccc(/C=C2\N=C(C)OC2=O)c1[N+](=O)[O-]`, the TGI in assay [1], in [2], in assay [3], in assay [4], in assay [5] and in assay [8] was more than 100 µM throughout. Moreover, the TGI in assay [9] and in assay [10] was more than 100 µM in each case.

Take `NNC(=O)/C(=C/c1cccc([N+](=O)[O-])c1)NC(=O)c1ccccc1`: the TGI in [1], in assay [2], in assay [3], in assay [4], in assay [5] and in assay [6] was more than 100 µM in each case. Also, the TGI in [7], in assay [8] and in assay [9] was more than 100 µM each time.

Regarding `Cn1nc(-c2ccccc2NC(=O)C(F)(F)F)c(=O)n(C)c1=S`, the TGI in [1] was more than 100 µM; in assay [2], more than 100 µM; in assay [3], more than 100 µM; in [4], 64.1 µM; in assay [5], more than 100 µM; in [6] it was 29.5 µM. Further, the TGI in assay [7] was 86.5 µM; in assay [8] it was more than 100 µM.

(Values after PubChem BioAssay (NCI).)
